Experimental data published in PubChem BioAssay (NCI).
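GI50 = concentration required for 50% inhibition of growth. TGI marks complete inhibition of growth.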

Columns and labels:
Assay in all cases: NCI-60 cell line screen, 384-well format
MALME-3M melanoma = tested on: MALME-3M melanoma
HOP-62 NSCLC = tested on: HOP-62 NSCLC
NCI-H322M lung = tested on: NCI-H322M lung
NCI-H522 lung = tested on: NCI-H522 lung
HT29 colon = tested on: HT29 colon
RPMI-8226 leukemia = tested on: RPMI-8226 leukemia
EKVX NSCLC = tested on: EKVX NSCLC
786-0 renal = tested on: 786-0 renal
SN12C renal = tested on: SN12C renal
HL-60(TB) leukemia = tested on: HL-60(TB) leukemia
COLO 205 colon = tested on: COLO 205 colon
MOLT-4 leukemia = tested on: MOLT-4 leukemia
UACC-62 melanoma = tested on: UACC-62 melanoma
SK-OV-3 ovarian = tested on: SK-OV-3 ovarian
M14 melanoma = tested on: M14 melanoma
HCT-15 colon = tested on: HCT-15 colon
DU-145 prostate = tested on: DU-145 prostate
NCI-H23 lung = tested on: NCI-H23 lung
MDA-MB-435 melanoma = tested on: MDA-MB-435 melanoma
A498 renal = tested on: A498 renal
UACC-257 melanoma = tested on: UACC-257 melanoma
HCC-2998 colon = tested on: HCC-2998 colon
MCF7 breast = tested on: MCF7 breast
SK-MEL-5 melanoma = tested on: SK-MEL-5 melanoma
SNB-19 CNS = tested on: SNB-19 CNS
IGROV1 ovarian = tested on: IGROV1 ovarian
LOX IMVI melanoma = tested on: LOX IMVI melanoma
BT-549 breast = tested on: BT-549 breast
HCT-116 colon = tested on: HCT-116 colon
TK-10 renal = tested on: TK-10 renal
PC-3 prostate = tested on: PC-3 prostate
CCRF-CEM leukemia = tested on: CCRF-CEM leukemia
K-562 leukemia = tested on: K-562 leukemia
HOP-92 NSCLC = tested on: HOP-92 NSCLC
HS 578T breast = tested on: HS 578T breast
SF-268 CNS = tested on: SF-268 CNS
RXF 393 renal = tested on: RXF 393 renal
NCI-H460 NSCLC = tested on: NCI-H460 NSCLC
OVCAR-4 ovarian = tested on: OVCAR-4 ovarian
KM12 colon = tested on: KM12 colon
NCI-H226 lung = tested on: NCI-H226 lung
SK-MEL-28 melanoma = tested on: SK-MEL-28 melanoma
MDA-MB-468 breast = tested on: MDA-MB-468 breast
SF-539 CNS = tested on: SF-539 CNS
U251 glioblastoma = tested on: U251 glioblastoma
CAKI-1 renal = tested on: CAKI-1 renal
SW-620 colon = tested on: SW-620 colon
OVCAR-3 ovarian = tested on: OVCAR-3 ovarian
A549 NSCLC = tested on: A549 NSCLC
SK-MEL-2 melanoma = tested on: SK-MEL-2 melanoma
SNB-75 CNS = tested on: SNB-75 CNS
SF-295 CNS = tested on: SF-295 CNS
NCI/ADR-RES ovarian = tested on: NCI/ADR-RES ovarian
ACHN renal = tested on: ACHN renal
OVCAR-8 ovarian = tested on: OVCAR-8 ovarian

Structure (SMILES): CN(C)C(=O)c1ccc(SC(=S)NCc2ccccc2)cc1
- GI50 (MALME-3M melanoma): 3.15 µM
- TGI (MALME-3M melanoma): 5.52 µM
- GI50 (HOP-62 NSCLC): 1.9 µM
- TGI (HOP-62 NSCLC): 3.87 µM
- GI50 (NCI-H322M lung): 5.05 µM
- TGI (NCI-H322M lung): 15.7 µM
- GI50 (NCI-H522 lung): 3.18 µM
- TGI (NCI-H522 lung): 7.34 µM
- GI50 (HT29 colon): 1.8 µM
- TGI (HT29 colon): 3.25 µM
- GI50 (RPMI-8226 leukemia): 0.458 µM
- TGI (RPMI-8226 leukemia): 1.22 µM
- GI50 (EKVX NSCLC): 13.4 µM
- TGI (EKVX NSCLC): 26.3 µM
- GI50 ([…]-0 renal): 1.99 µM
- TGI (786-0 renal): 3.6 µM
- GI50 (SN12C renal): 2.45 µM
- TGI (SN12C renal): 6.12 µM
- GI50 (HL-60(TB) leukemia): 0.364 µM
- TGI (HL-60(TB) leukemia): 1.15 µM
- GI50 (COLO 205 colon): 4.72 µM
- TGI (COLO 205 colon): 15.1 µM
- GI50 (MOLT-4 leukemia): 1.64 µM
- TGI (MOLT-4 leukemia): 3.09 µM
- GI50 (UACC-62 melanoma): 2.09 µM
- TGI (UACC-62 melanoma): 3.61 µM
- GI50 (SK-OV-3 ovarian): 6.26 µM
- TGI (SK-OV-3 ovarian): 18.1 µM
- GI50 (M14 melanoma): 2.36 µM
- TGI (M14 melanoma): 5.32 µM
- GI50 (HCT-15 colon): 1.9 µM
- TGI (HCT-15 colon): 3.53 µM
- GI50 (DU-145 prostate): 5.09 µM
- TGI (DU-145 prostate): 15 µM
- GI50 (NCI-H23 lung): 3.17 µM
- TGI (NCI-H23 lung): 8.36 µM
- GI50 (MDA-MB-435 melanoma): 2.23 µM
- TGI (MDA-MB-435 melanoma): 5.21 µM
- GI50 (A498 renal): 3.78 µM
- TGI (A498 renal): 10.3 µM
- GI50 (UACC-257 melanoma): 2.9 µM
- TGI (UACC-257 melanoma): 5.66 µM
- GI50 (HCC-2998 colon): 4.77 µM
- TGI (HCC-2998 colon): 13.6 µM
- GI50 (MCF7 breast): 2.36 µM
- TGI (MCF7 breast): 10.6 µM
- GI50 (SK-MEL-5 melanoma): 1.91 µM
- TGI (SK-MEL-5 melanoma): 3.38 µM
- GI50 (SNB-19 CNS): 3.37 µM
- TGI (SNB-19 CNS): 9.21 µM
- GI50 (IGROV1 ovarian): 2.48 µM
- TGI (IGROV1 ovarian): 6.77 µM
- GI50 (LOX IMVI melanoma): 2.07 µM
- TGI (LOX IMVI melanoma): 4.09 µM
- GI50 (BT-549 breast): 2.39 µM
- TGI (BT-549 breast): 4.6 µM
- GI50 (HCT-116 colon): 3.51 µM
- TGI (HCT-116 colon): 8.81 µM
- GI50 (TK-10 renal): 2.87 µM
- TGI (TK-10 renal): 6.13 µM
- GI50 (PC-3 prostate): 3.64 µM
- TGI (PC-3 prostate): 9.17 µM
- GI50 (CCRF-CEM leukemia): 1.63 µM
- TGI (CCRF-CEM leukemia): 3.05 µM
- GI50 (K-562 leukemia): 10.6 µM
- TGI (K-562 leukemia): 22.5 µM
- GI50 (HOP-92 NSCLC): 2.72 µM
- TGI (HOP-92 NSCLC): 7.17 µM
- GI50 (HS 578T breast): 2.77 µM
- TGI (HS 578T breast): 5.81 µM
- GI50 (SF-268 CNS): 3.83 µM
- TGI (SF-268 CNS): 10.8 µM
- GI50 (RXF 393 renal): 1.83 µM
- TGI (RXF 393 renal): 3.34 µM
- GI50 (NCI-H460 NSCLC): 2.73 µM
- TGI (NCI-H460 NSCLC): 6.45 µM
- GI50 (OVCAR-4 ovarian): 15.7 µM
- TGI (OVCAR-4 ovarian): 29.2 µM
- GI50 (KM12 colon): 1.67 µM
- TGI (KM12 colon): 8.91 µM
- GI50 (NCI-H226 lung): 2.63 µM
- TGI (NCI-H226 lung): 6.33 µM
- GI50 (SK-MEL-28 melanoma): 2.52 µM
- TGI (SK-MEL-28 melanoma): 4.91 µM
- GI50 (MDA-MB-468 breast): 0.701 µM
- TGI (MDA-MB-468 breast): 1.33 µM
- GI50 (SF-539 CNS): 1.77 µM
- TGI (SF-539 CNS): 3.29 µM
- GI50 (U251 glioblastoma): 3.55 µM
- TGI (U251 glioblastoma): 9.29 µM
- GI50 (CAKI-1 renal): 2.92 µM
- TGI (CAKI-1 renal): 9.76 µM
- GI50 (SW-620 colon): 2.87 µM
- TGI (SW-620 colon): 10.1 µM
- GI50 (OVCAR-3 ovarian): 3.8 µM
- TGI (OVCAR-3 ovarian): 11.4 µM
- GI50 (A549 NSCLC): 7.98 µM
- TGI (A549 NSCLC): 21 µM
- GI50 (SK-MEL-2 melanoma): 1.54 µM
- TGI (SK-MEL-2 melanoma): 2.98 µM
- GI50 (SNB-75 CNS): 4.09 µM
- TGI (SNB-75 CNS): 7.63 µM
- GI50 (SF-295 CNS): 12.1 µM
- TGI (SF-295 CNS): 24.6 µM
- GI50 (NCI/ADR-RES ovarian): 2.96 µM
- TGI (NCI/ADR-RES ovarian): 6.23 µM
- GI50 (ACHN renal): 3.24 µM
- TGI (ACHN renal): 8.66 µM
- GI50 (OVCAR-8 ovarian): 2.15 µM
- TGI (OVCAR-8 ovarian): 4.31 µM
